Experimental data: patent US20140309210A1, “INDAZOLE COMPOUNDS, COMPOSITIONS AND METHODS OF USE THEREOF” (Genentech, Inc., priority 2011, published 2014)
pKi: −log10 of the molar value.

Target: T1, purified ITK (Invitrogen PV3875) (Homo sapiens, UniProt Q08881)
T1 construct: purchased Invitrogen PV3875
T1 sequence (Q08881 1-620): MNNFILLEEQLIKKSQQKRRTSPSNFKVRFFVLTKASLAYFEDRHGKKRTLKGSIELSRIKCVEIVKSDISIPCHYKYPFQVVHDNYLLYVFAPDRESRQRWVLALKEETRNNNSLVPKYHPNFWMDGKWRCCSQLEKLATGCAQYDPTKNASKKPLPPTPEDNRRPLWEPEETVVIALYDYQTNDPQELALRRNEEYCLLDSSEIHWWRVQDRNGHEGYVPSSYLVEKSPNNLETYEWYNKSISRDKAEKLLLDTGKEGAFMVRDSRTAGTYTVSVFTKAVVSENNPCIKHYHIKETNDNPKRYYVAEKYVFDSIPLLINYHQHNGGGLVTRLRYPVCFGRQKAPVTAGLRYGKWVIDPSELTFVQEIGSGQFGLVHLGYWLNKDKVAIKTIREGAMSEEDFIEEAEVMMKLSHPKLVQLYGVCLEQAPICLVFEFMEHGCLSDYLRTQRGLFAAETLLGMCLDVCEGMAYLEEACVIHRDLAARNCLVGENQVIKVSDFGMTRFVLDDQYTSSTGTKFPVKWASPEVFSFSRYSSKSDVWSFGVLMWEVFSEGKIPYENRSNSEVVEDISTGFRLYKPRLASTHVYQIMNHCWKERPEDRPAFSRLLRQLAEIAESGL
Assay: ITK peptide phosphorylation assay (Caliper LabChip or LCMS)
Assay type: biochemical
In short: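 Purified human ITK peptide phosphorylation, quenched with EDTA (50 mM final) for Caliper LabChip separation or TCA (5% v/v final) for UPLC-MS/MS MRM quantification. Ki derived via Morrison tight-binding equation, corrected for competitive inhibition using ATP concentration relative to Km,app.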

[1] = Table 2, Examples 1-140, class symbols

Compound | pKi [1] | pKi (Table 3, specific values for certain examples) | pKi (Table 1, Examples 141-279)
O=C(Nc1cnn(CCc2ccccc2)c1)c1n[nH]c2cc(-c3cn[nH]c3)ccc12 [Example 11, 6-(1H-Pyrazol-4-yl)-1H-indazole-3-carboxylic acid (1-phenethyl-1H-pyrazol-4-yl)-amide] | 7.00 to 9.00 | – | –
O=C(Nc1cnn(Cc2cccc(N3CCOCC3)c2)c1)c1n[nH]c2cc(-c3cn[nH]c3)ccc12 [Example 40, N-[1-[(3-morpholinophenyl)methyl]pyrazol-4-yl]-6-(1H-pyrazol-4-yl)-1H-indazole-3-carboxamide] | 9.00 to 11.00 | – | –
N#Cc1cccc(Cn2cc(NC(=O)c3n[nH]c4ccc(Cl)cc34)cn2)c1 [Example 1, 5-chloro-N-(1-(3-cyanobenzyl)-1H-pyrazol-4-yl)-1H-indazole-3-carboxamide] | 7.00 to 9.00 | 7.42 | –
O=C(Nc1cnn(Cc2cccc(-c3ccccn3)c2)c1)c1n[nH]c2cc(-c3cn[nH]c3)ccc12 [Example 38, 6-(1H-Pyrazol-4-yl)-1H-indazole-3-carboxylic acid [1-(3-pyridin-2-yl-benzyl)-1H-pyrazol-4-yl]-amide] | 7.00 to 9.00 | – | –
NC(=O)c1cccc(Cn2cc(NC(=O)c3n[nH]c4cc(-c5cn[nH]c5)ccc34)cn2)c1 [Example 29, 6-(1H-Pyrazol-4-yl)-1H-indazole-3-carboxylic acid [1-(3-carbamoyl-benzyl)-1H-pyrazol-4-yl]-amide] | 9.00 to 11.00 | – | –
O=C(Nc1cnn(Cc2c(Cl)cccc2Cl)c1)c1n[nH]c2ccccc12 [Example 61, N-(1-(2,6-dichlorobenzyl)-1H-pyrazol-4-yl)-1H-indazole-3-carboxamide] | < 7.00 | – | –
O=C(Nc1cnn(Cc2ccc(C(F)(F)F)cc2)c1)c1n[nH]c2ccccc12 [Example 62, N-(1-(4-(trifluoromethyl)benzyl)-1H-pyrazol-4-yl)-1H-indazole-3-carboxamide] | 7.00 to 9.00 | – | –
O=C(Nc1cnn(Cc2cscn2)c1)c1n[nH]c2cc(-c3cn[nH]c3)ccc12 [Example 26, 6-(1H-Pyrazol-4-yl)-1H-indazole-3-carboxylic acid (1-thiazol-4-ylmethyl-1H-pyrazol-4-yl)-amide] | 7.00 to 9.00 | – | –

Next, values leading:

pKi [1] | pKi (Table 3, specific values for certain examples) | pKi (Table 1, Examples 141-279) | Compound
– | – | 8.26 | COCCN(C)CC(c1cccnc1)n1cc(NC(=O)c2n[nH]c3cc(-c4cncc(OC)c4)ccc23)cn1 (stereo not shown) [Example 228, N-[1-[2-[2-methoxyethyl(meth-yl)amino]-1-(3-pyridyl)ethyl]py-razol-4-yl]-6-(5-methoxy-3-pyridyl)-1H-indazole-3-carboxamide]
– | – | 7.00 | CC(=O)N(C)CCC(c1ccccc1)n1cc(NC(=O)c2n[nH]c3ccccc23)cn1 (stereo not shown) [Example 266, N-[1-[3-[acetyl(methyl)a-mino]-1-phenyl-propyl]pyrazol-4-yl]-1H-indazole-3-carboxamide]
– | – | 7.72 | O=C(Nc1cnn(Cc2ccccc2)c1)c1n[nH]c2cc(-c3cn[nH]c3)cnc12 [Example 245, N-(1-benzylpyrazol-4-yl)-6-(1H-pyrazol-4-yl)-1H-pyrazolo[4,3-b]pyridine-3-carboxamide]
– | – | 8.18 | O=C(Nc1cnn(CC2CCCO2)c1)c1n[nH]c2cc(-c3cn[nH]c3)ccc12 (stereo not shown) [Example 239, 6-(1H-pyrazol-4-yl)-N-[1-(tetrahydrofuran-2-ylmethyl)pyrazol-4-yl]-1H-indazole-3-carboxamide]
– | – | 8.33 | O=C(Nc1cnn(CC2CCOC2)c1)c1n[nH]c2cc(-c3cn[nH]c3)ccc12 (stereo not shown) [Example 235, 6-(1H-pyrazol-4-yl)-N-[1-(tetrahydrofuran-3-ylmethyl)pyrazol-4-yl]-1H-indazole-3-carboxamide]
7.00 to 9.00 | – | – | COc1cncc(-c2ccc3c(C(=O)Nc4cnn(Cc5ccccc5)c4)n[nH]c3c2)c1 [Example 85, N-(1-benzyl-1H-pyrazol-4-yl)-6-(5-methoxypyridin-3-yl)-1H-indazole-3-carboxamide]
– | – | 7.42 | O=C(Nc1cnn(Cc2ccccc2)c1)c1n[nH]c2cc(-c3cnccn3)ccc12 [Example 204, N-(1-benzyl-1H-pyrazol-4-yl)-6-(pyrazin-2-yl)-1H-indazole-3-carboxamide]
